One block for each compound: values may come before it.
Legend:
[1] = test system: Normal human dermal fibroblasts; assay: Collagen production promoting effect (ELISA of supernatant); type: cell-based; settings: amount of collagen produced, % with control group taken as 100%; sample at 10 mmol/L or less, 48 hours, N=3
Experimental: Normal human dermal fibroblasts were prepared in D-MEM containing 5% (v/v) fetal bovine serum to a cell density of […] cells/well, and pre incubated on a 96-well plate for 24 hours. After removing the medium, samples prepared to a predetermined concentration in D-MEM containing 5% (v/v) fetal bovine serum were added to each well and cultured for 48 hours. After completion of the culture, the amount of free collagen in the supernatant was quantified by ELISA method. The measurement was performed with N=3.
(§1) The amount of collagen produced when the samples were measured at a concentration of 10 mmol/L or less was compared with that of the control group, and the results (% values when the control group is taken as 100%) are shown in Tables 15 to 17 based on the following criteria. • <100%: ± • 100-120%: + • 120%: ++

B16 melanoma 4A5 cells = assay: Melanin production inhibitory effect (theophylline-induced melanin production); type: cell-based, mouse; settings: melanin production inhibition rate, sample at a concentration of 10 mM or less, 3 days culture, theophylline 1 mmol/L, N=4
Experimental: As a test of the whitening effect, the effect on theophylline-induced melanin production in B16 melanoma 4A5 cells was evaluated for the ascorbic acid derivatives of the present invention according to the following procedure. A similar evaluation was also performed for a known ascorbic acid derivative for comparison. The results are shown in Tables 9 to 11. • (1) B16 mouse melanoma 4A5 cells were seeded in a 48-well plate at a cell density of 8.0×10^3 cells/well. • (2) After culturing for 24 hours in Dulbecco's modified Eagle's medium (manufactured by SIGMA, hereinafter abbreviated as “D-MEM”) containing 10% fetal bovine serum, the medium was replaced with D-MEM containing 10% fetal bovine serum containing theophylline (final concentration 1 mmol/L) and a specified concentration of a sample. • (3) After culturing for 3 days in the presence of the sample, the medium was removed using an aspirator, distilled water was added, and the cells were disrupted by ultrasonication. • (4) The amount of protein was then quantified using a BCA protein assay kit (manufactured by PIERCE), and the amount of melanin produced was measured by an alkali solubilization method. Sodium hydroxide was added to the cell lysate to a final concentration of 1 mol/L, and the solution was dissolved by heating (60° C., 30 minutes), thereafter the absorbance at 405 nm was measured using a microplate reader. The amount of melanin was calculated from a calibration curve prepared using synthetic melanin (SIGMA) as a standard. The amount of melanin per unit protein was calculated by dividing the amount of melanin by the amount of protein. • (5) The melanin production inhibition rate was calculated using the following formula.
[In the formula, A represents the amount of melanin per unit protein (g/g) when the sample was added, B represents the amount of melanin per unit protein (g/g) in the normal group, and C represents the amount of melanin per unit protein (g/g) in the control group.]
The melanin production inhibition rate when the sample was measured at a concentration of 10 mM or less is expressed as follows. The measurement was performed with N=4. • <20%: ± • 20-40%: + • 40-60%: ++ • 60-100%: +++

[2] = test system: Normal human dermal fibroblasts (NHDF); assay: Hyaluronic acid production promoting effect (ELISA of supernatant); type: cell-based; settings: amount of hyaluronic acid produced, % with control group taken as 100%; sample at 10 mmol/L or less, 48 hours, N=3
Experimental: Normal human dermal fibroblasts (NHDF) were prepared in D-MEM containing 5% (v/v) fetal bovine serum to a cell density of 2.5× 10^4 cells/well, and then pre-incubated on a 96-well plate for 24 hours. After removing the medium, samples prepared in serum-free D-MEM were added to each well and cultured for 48 hours. After the culture was completed, the amount of hyaluronic acid in the supernatant was quantified by ELISA method. The measurement was performed with N=3.
as §1, with “of hyaluronic acid” for “of collagen”, “Tables 18” for “Tables 15”, “to 20” for “to 17”, “• 120-150%:” for “• 120%:”, “++ • 150%: +++” for “++”

[3] = Stability test (residual rate by HPLC, odor, coloring); type: physicochemical; settings: 1% aqueous solution; for Coloring / Odor: total score of 10 panelists
Experimental: With a dilute potassium hydroxide aqueous solution, 1% aqueous solution of each test sample was adjusted to pH 6, placed in a 50 mL screw tube, sealed, […], and then subjected to HPLC measurement (using a liquid chromatograph manufactured by Shimadzu Corporation) to determine the residual rate from the peak area. The residual rate, odor, and coloring degree were evaluated according to the following methods and criteria.
Residual rate: • ⊚: 90% or more • ◯: 80% or more, less than 90% • Δ: 60% or more, less than 80% • x: 20% or more, less than 60% • xx: Less than 20%
Evaluation was made by 10 panelists according to the following criteria. • 3: Almost odorless • 2: There is a slight strange odor. • 1: A strong odor is detected.
Based on the evaluation results, the following classification was made: • ⊚: Total score of 10 panelists is 25 or more • ◯: Total score of 10 panelists is 20-24 • Δ: Total score of 10 panelists is 16-19 • x: The total score of 10 panelists is 15 or less
Evaluation was made by 10 panelists according to the following criteria. • 3: Almost no change compared to immediately after preparation. • 2: Color changes compared to immediately after preparation. • 1: Strongly colored compared to immediately after preparation.
Based on the evaluation results, the following classification was made: • ◯: Total score of 10 panelists is 25 or more • Δ: Total score of 10 panelists is 16-24 • x: The total score of 10 panelists is 15 or less

[4] = pH 6, stored at 50° C., four weeks later
[5] = pH 6, stored at 50° C., two weeks later

Residual rate ([3]; pH 6, 50° C., initial): ⊚ (⊚: 90% or more)
Residual rate [3, 4]: ⊚ (⊚: 90% or more)
Residual rate [3, 5]: ⊚ (⊚: 90% or more)
SMILES: CC(C)(O)COC1=C(OCC(C)(C)O)[C@@H]([C@@H](O)CO)OC1=O [Synthesis Example 17, 2,3-di-O-(2-hydroxyisobutyl) ascorbic acid]
Collagen production promoting effect [1]: ++ (120%: ++)
Melanin production inhibition effect (B16 melanoma 4A5 cells): + (20-40%: +)
Hyaluronic acid production promoting effect [2]: ++ (120-150%: ++)
Coloring ([3]; pH 6, 50° C., initial): ◯ (◯: Total score of 10 panelists is 25 or more)
Odor ([3]; pH 6, 50° C., initial): ◯ (◯: Total score of 10 panelists is 20-24)
Coloring [3, 4]: ◯ (◯: Total score of 10 panelists is 25 or more)
Odor [3, 4]: ◯ (◯: Total score of 10 panelists is 20-24)
Coloring [3, 5]: ◯ (◯: Total score of 10 panelists is 25 or more)
Odor [3, 5]: ◯ (◯: Total score of 10 panelists is 20-24)

Residual rate ([3]; pH 6, 50° C., initial): ⊚ (⊚: 90% or more)
Residual rate [3, 4]: ⊚ (⊚: 90% or more)
Residual rate [3, 5]: ⊚ (⊚: 90% or more)
SMILES: CCCCCCCCCCCCOC1=C(OCC(C)(C)O)C(=O)O[C@@H]1[C@@H](O)CO [Synthesis Example 8, 2-O-(2-hydroxyisobutyl)-3-O-dodecyl ascorbic acid]
Collagen production promoting effect [1]: ++ (120%: ++)
Melanin production inhibition effect (B16 melanoma 4A5 cells): ++ (40-60%: ++)
Hyaluronic acid production promoting effect [2]: +++ (150%: +++)
Coloring ([3]; pH 6, 50° C., initial): ◯ (◯: Total score of 10 panelists is 25 or more)
Odor ([3]; pH 6, 50° C., initial): ◯ (◯: Total score of 10 panelists is 20-24)
Coloring [3, 4]: ◯ (◯: Total score of 10 panelists is 25 or more)
Odor [3, 4]: ◯ (◯: Total score of 10 panelists is 20-24)
Coloring [3, 5]: ◯ (◯: Total score of 10 panelists is 25 or more)
Odor [3, 5]: ◯ (◯: Total score of 10 panelists is 20-24)

Residual rate ([3]; pH 6, 50° C., initial): ⊚ (⊚: 90% or more)
Coloring ([3]; pH 6, 50° C., initial): ⊚
Residual rate [3, 4]: ⊚ (⊚: 90% or more)
Residual rate [3, 5]: ⊚ (⊚: 90% or more)
SMILES: CC(O)COC1=C(OCC(C)(C)O)[C@@H]([C@@H](O)CO)OC1=O (stereo partly drawn) [Synthesis Example 39, 3-O-(2-hydroxyisobutyl)-2-O-(2-hydroxypropyl) ascorbic acid]
Collagen production promoting effect [1]: + (100-120%: +)
Melanin production inhibition effect (B16 melanoma 4A5 cells): +++ (60-100%: +++)
Hyaluronic acid production promoting effect [2]: +++ (150%: +++)
Odor ([3]; pH 6, 50° C., initial): ⊚ (⊚: Total score of 10 panelists is 25 or more)
Coloring [3, 4]: ◯ (◯: Total score of 10 panelists is 25 or more)
Odor [3, 4]: ◯ (◯: Total score of 10 panelists is 20-24)
Coloring [3, 5]: ◯ (◯: Total score of 10 panelists is 25 or more)
Odor [3, 5]: ◯ (◯: Total score of 10 panelists is 20-24)

Residual rate ([3]; pH 6, 50° C., initial): ⊚ (⊚: 90% or more)
Residual rate [3, 4]: ⊚ (⊚: 90% or more)
Residual rate [3, 5]: ⊚ (⊚: 90% or more)
SMILES: CC(C)(O)COC1=C(OCC(O)c2ccccc2)C(=O)OC1C(O)CO (stereo not drawn) [Synthesis Example 43, 3-O-(2-hydroxyisobutyl)-2-O-(2-hydroxyethylbenzene) ascorbic acid]
Collagen production promoting effect [1]: ++ (120%: ++)
Melanin production inhibition effect (B16 melanoma 4A5 cells): ++ (40-60%: ++)
Hyaluronic acid production promoting effect [2]: ++ (120-150%: ++)
Coloring ([3]; pH 6, 50° C., initial): ◯ (◯: Total score of 10 panelists is 25 or more)
Odor ([3]; pH 6, 50° C., initial): ◯ (◯: Total score of 10 panelists is 20-24)
Coloring [3, 4]: ◯ (◯: Total score of 10 panelists is 25 or more)
Odor [3, 4]: ◯ (◯: Total score of 10 panelists is 20-24)
Coloring [3, 5]: ◯ (◯: Total score of 10 panelists is 25 or more)
Odor [3, 5]: ◯ (◯: Total score of 10 panelists is 20-24)

SMILES: CC(C)(O)COC1=C(OCC(O)CO)[C@@H]([C@@H](O)CO)OC1=O (stereo partly drawn) [Synthesis Example 13, 2-O-(2-hydroxyisobutyl)-3-O-glyceryl ascorbic acid]
Collagen production promoting effect [1]: ++ (120%: ++)
Melanin production inhibition effect (B16 melanoma 4A5 cells): ++ (40-60%: ++)
Hyaluronic acid production promoting effect [2]: ++ (120-150%: ++)

SMILES: CCCCCCCCCCCCOC1=C(OCC(C)(C)O)[C@@H]([C@@H](O)CO)OC1=O [Synthesis Example 23, 2-O-dodecyl-3-O-(2-hydroxyisobutyl) ascorbic acid]
Collagen production promoting effect [1]: ++ (120%: ++)
Melanin production inhibition effect (B16 melanoma 4A5 cells): +++ (60-100%: +++)
Hyaluronic acid production promoting effect [2]: ++ (120-150%: ++)

SMILES: C=CCOC1=C(OCC(C)(C)O)[C@@H]([C@@H](O)CO)OC1=O [Synthesis Example 26, 2-O-allyl-3-O-(2-hydroxyisobutyl) ascorbic acid]
Collagen production promoting effect [1]: ++ (120%: ++)
Melanin production inhibition effect (B16 melanoma 4A5 cells): + (20-40%: +)
Hyaluronic acid production promoting effect [2]: ++ (120-150%: ++)

SMILES: CC(C)(O)COC1=C(OCc2ccccc2)[C@@H]([C@@H](O)CO)OC1=O [Synthesis Example 12, 2-O-(2-hydroxyisobutyl)-3-O-benzyl ascorbic acid]
Collagen production promoting effect [1]: ++ (120%: ++)
Melanin production inhibition effect (B16 melanoma 4A5 cells): +++ (60-100%: +++)
Hyaluronic acid production promoting effect [2]: +++ (150%: +++)

SMILES: CC(O)COC1=C(OCC(C)(C)O)C(=O)O[C@@H]1[C@@H](O)CO (stereo partly drawn) [Synthesis Example 34, 2-O-(2-hydroxyisobutyl)-3-O-(2-hydroxypropyl) ascorbic acid]
Collagen production promoting effect [1]: + (100-120%: +)
Melanin production inhibition effect (B16 melanoma 4A5 cells): +++ (60-100%: +++)
Hyaluronic acid production promoting effect [2]: ++ (120-150%: ++)

SMILES: CCC(O)COC1=C(OCC(C)(C)O)C(=O)O[C@@H]1[C@@H](O)CO (stereo partly drawn) [Synthesis Example 35, 2-O-(2-hydroxyisobutyl)-3-O-(2-hydroxybutyl) ascorbic acid]
Collagen production promoting effect [1]: ++ (120%: ++)
Melanin production inhibition effect (B16 melanoma 4A5 cells): ++ (40-60%: ++)
Hyaluronic acid production promoting effect [2]: ++ (120-150%: ++)

SMILES: CC(C)(O)COC1=C(OCc2ccccc2)C(=O)O[C@@H]1[C@@H](O)CO [Synthesis Example 27, 2-O-benzyl-3-O-(2-hydroxyisobutyl) ascorbic acid]
Collagen production promoting effect [1]: ++ (120%: ++)
Melanin production inhibition effect (B16 melanoma 4A5 cells): ++ (40-60%: ++)
Hyaluronic acid production promoting effect [2]: +++ (150%: +++)
